Data: paper PMC6749236, “Synthesis of Novel 2-(Het)arylpyrrolidine Derivatives and Evaluation of Their Anticancer and Anti-Biofilm Activity” (Molecules, 2019)

How the values were obtained:
[1] = system: early apoptosis markers (Caspase-8, Caspase-9) in M-Hela cell lysates; experiment: Multiplex analysis of early apoptosis markers (MILLIPLEX MAP 7-plex, Luminex); type: cell-based, human; conditions: 24 h, IC50 concentration of 14.7 µM
Procedure: Multiplex analysis of early apoptosis markers. Next, using the MILLIPLEX® MAP 7-plex Early Phase Apoptosis Signaling kit, seven markers of early apoptosis of JNK, Bad, Bcl-2, Akt, Caspase-9, p53, and Caspase-8 were detected in M-Hela cell lysates. The median fluorescence intensity (MFI) was measured using the Luminex® system. This assay is a quick and convenient alternative to Western blot and immunoprecipitation.
Multiplex analysis of early apoptosis markers. M-Hela cells were incubated for 24 hours with the test substance. Cells were lysed in MILLIPLEX® MAP Lysis buffer containing protease inhibitors. Twenty micrograms of total protein of each lysate diluted in MILLIPLEX® MAP Assay Buffer 2 was analyzed according to the analysis protocol (the lysate was incubated at 4 °C overnight). The mean fluorescence intensity (MFI) was detected using the Luminex® system, MERCK, USA.

M-Hela cells [2] = experiment: Mitochondrial membrane potential, JC-10 flow cytometry; type: cell-based, human; conditions: IC50 concentration of 14.7 μM
Procedure: Effects on the mitochondrial membrane potential (Δψm) by lead compounds. In confirmation of data on the course of apoptosis in cells along an external pathway not associated with dysfunctional mitochondria, the ability of the tested compounds to reduce the potential of the mitochondrial membrane (Δψm) in M-Hela culture cells was examined using the example of compound 6g. Studies were performed using flow cytometry methods using JC-10 reagent. In normal cells with a high potential of the mitochondrial membrane, the dye JC-10 forms aggregates (J-aggregate) near the mitochondrial membranes. When the membrane potential due to the stimulation of apoptosis falls, JC-10 is evenly distributed in the cell as a monomer (J-monomer). JC-10 units in normal cells have red fluorescence, and JC-10 monomers are green. The ratio between orange-red and green fluorescence can be used to assess the onset of apoptosis. […] The results obtained indicate that the mechanism of action of the studied compounds is not associated with the induction of apoptosis, which proceeds along the mitochondrial pathway.
Flow Cytometry Assay. Mitochondrial membrane potential. […] After the cells were rinsed three times and suspended in PBS, the JC-10 fluorescence was observed by flow cytometry (Guava easy Cyte 8HT, Guava Technologies Inc., Hayward, CA, USA).

M-Hela = experiment: Cytotoxicity assay (Cytell Cell Imaging, DAPI/propidium iodide), cancer cell line; type: cell-based; conditions: Homo sapiens, M-HeLa, read-out: IC50 Cancer Cell Line M-Hela
M-Hela cells [3] = experiment: Induction of apoptotic effects (annexin V-Alexa Fluor 647, Cytell); type: cell-based, human; conditions: 24 hours of treatment, concentration corresponding to the IC50 value (14.7 μM)
Procedure: Induction of Apoptotic Effects by test compounds. Cell Culture. M-Hela cells at 1 × 10^6 cells/well in a final volume of 2 mL were seeded into six-well plates. After 24 hours of incubation, a solution of the test compound 6g was added to the wells at the concentration studied.
Cytell Cell Imaging System Assay. M-Hela cells were plated into a 24-well plate (Eppendorf) at a concentration of 1 × 10^6 cells/mL, 500 µL of medium per well, and cultured in a CO2 incubator at 37 °C. Twenty-four hours after seeding the cells into wells the compound was added at a preset dilution, 500 µL to each well. […] Evaluation of apoptotic effects was performed with the help of multifunctional system Cytell Cell Imaging, using Cell Viability BioApp and Automated Imaging BioApp applications. The annexin V-Alexa Fluor 647 apoptosis detection kit, DAPI and propidium iodide purchased from Sigma.
Statistical analysis. The experiments were repeated three times. The cytometric results were analyzed by the Cytell Cell Imaging multifunctional system using the Cell Viability BioApp and Apoptosis BioApp application. The data in the tables and graphs are given as the mean ± standard error.

Chang liver cell line = experiment: Cytotoxicity assay (Cytell Cell Imaging), normal cell line; type: cell-based; conditions: Homo sapiens, read-out: IC50 Normal Cell Line Chang Liver
P388 murine leukemia = experiment: In vivo anti-tumor activity, i.p. implanted leukemia; set-up: species or system BDF1 hybrid male mice; conditions: for ILS / MST ± SD / antitumor (anti-leukemic) activity, in words: days 1, 5, 9; for ILS / MST ± SD: P388; for Survival: day 60; for Survivors/Total: survivors on day 60; for antitumor (anti-leukemic) activity, in words: P388, dose range 18–83 mg/kg/day i.p.
Procedure: Animals. In vivo experiments were performed using the BDF1 hybrid male mice of 22–24 g weight. The experimental animals were caged in a standard vivarium in 12 h light conditions with free access to food and water. All manipulations with the animals were performed in accordance with the solutions of the Commission on Bioethics of the Institute of Problems of Chemical Physics, Russian Academy of Sciences (IPCP RAS).
Anti-tumor activity. The tumors were transplanted intraperitoneally (i.p.) in accordance with a standard procedure inoculum: 10^6 tumor cells in isotonic solution of NaCl, V = 0.2 cm^3 (leukemia P388). Original compounds were injected intraperitoneally as aqueous solution. Doses from 18 to 83 mg/kg/day and the mode of administration on days 1, 5, and 9 after transplantation were used. In each experiment, a single group of tumor-bearing animals not injected with the compounds served as the control group. Each group consisted of six mice. The animals were observed daily for survival for a minimum of 60 days. The efficacy of the therapy against leukemia (defined as increase in lifespan—ILS) was assessed as the percentage of the median survival time (MST) of the treated group (t) to that of the control group (c): ILS(%) = (MSTt/MSTc) × 100.
Statistics. The experiments were carried out in triplicate. The data are presented in the form X ± SD (mean ± standard deviation). The significance of the differences between the groups was assessed using Student’s t-test. Values of p < 0.05 were considered statistically significant. The data were processed statistically using GraphPad Prism.

[4] = Water solubility (selection for parenteral administration); type: physicochemical

Compound | IC50 (M-Hela) | IC50 (Chang liver cell line) | ILS (P388 murine leukemia; 18 mg/kg/day i.p.) | MST ± SD (P388 murine leukemia; 18 mg/kg/day i.p.) | Survival (P388 murine leukemia; 18 mg/kg/day) | Survivors/Total (P388 murine leukemia; 18 mg/kg/day) | ILS (P388 murine leukemia; 26 mg/kg/day i.p.) | MST ± SD (P388 murine leukemia; 26 mg/kg/day i.p.) | Survival (P388 murine leukemia; 26 mg/kg/day) | Survivors/Total (P388 murine leukemia; 26 mg/kg/day) | ILS (P388 murine leukemia; 40 mg/kg/day i.p.) | MST ± SD (P388 murine leukemia; 40 mg/kg/day i.p.) | Survival (P388 murine leukemia; 40 mg/kg/day) | Survivors/Total (P388 murine leukemia; 40 mg/kg/day) | ILS (P388 murine leukemia; 55 mg/kg/day i.p.) | Survival (P388 murine leukemia; 55 mg/kg/day) | Survivors/Total (P388 murine leukemia; 55 mg/kg/day) | ILS (P388 murine leukemia; 83 mg/kg/day i.p.) | MST ± SD (P388 murine leukemia; 83 mg/kg/day i.p.) | Survival (P388 murine leukemia; 83 mg/kg/day) | further results
O=C(NC1CCCCC1)N1CCCC1c1ccc(Nc2c([N+](=O)[O-])c(Cl)cc3c2no[n+]3[O-])cc1O (stereo not drawn) [6g, 6-Chloro-4-((4-(1-(cyclohexylcarbamoyl)pyrrolidin-2-yl)-3-hydroxyphenyl)amino)-5-nitrobenzo[c][1,2,5]oxadiazole 1-oxide] | 14.7 ± 0.9 µM | 46 ± 2.7 µM |  |  |  |  |  |  |  |  |  |  |  |  |  |  |  |  |  |  | fluorescence intensity of Caspase-8 versus control [1]: two times higher; fluorescence intensity of Caspase-9 versus control [1]: at the control level; decrease in mitochondrial membrane potential (Δψm) (M-Hela cells [2]): No decrease; melting point: 170 to 175 °C (dec.); M-Hela cells in which apoptosis was induced (M-Hela cells [3]): 25%
CN(C)CCNC(=O)N1CCCC1c1ccc(Nc2c([N+](=O)[O-])c(Cl)cc3c2no[n+]3[O-])cc1O.O=C(O)C(F)(F)F (stereo not drawn) [6h, 6-Chloro-4-((4-(1-((2-(dimethylammonio)ethyl)carbamoyl)pyrrolidin-2-yl)-3-hydroxyphenyl)amino)-5-nitrobenzo[c][1,2,5]oxadiazole 1-oxide 2,2,2-trifluoroacetate] | 100 ± 8.6 µM | > 100 µM | 37% | 13.8 ± 0.6 days | 0% | 0/6 | 34% | 13.5 ± 0.5 days | 0% | 0/6 | 27% | 12.8 ± 0.7 days | 0% | 0/6 | 39% | 0% | 0/6 | 11% | 11.2 ± 1.6 days | 0% | Survivors/Total (P388 murine leukemia; 83 mg/kg/day): 0/6; antitumor (anti-leukemic) activity, in words (P388 murine leukemia): did not show antitumor properties; solubility in water, in words [4]: water-soluble
Cc1cc(O)c(C2CCCN2C(=O)NCCN(C)C)c(=O)o1.O=C(O)C(F)(F)F (stereo not drawn) [7h, 2-(2-(4-Hydroxy-6-methyl-2-oxo-2H-pyran-3-yl)pyrrolidine-1-carboxamido)-N,N-dimethylethan-1-aminium 2,2,2-trifluoroacetate] | > 100 µM | > 100 µM | 0% | 11.0 ± 0.6 days | 0% | 0/6 | 0% | 10.3 ± 0.2 days | 0% | 0/6 | 0% | 10.2 ± 0.2 days | 0% | 0/6 | 0% | 0% | 0/6 | 0% | 10.3 ± 0.2 days | 0% | MST ± SD (P388 murine leukemia; 55 mg/kg/day i.p.): 10.7 ± 0.2 days; Survivors/Total (P388 murine leukemia; 83 mg/kg/day): 0/6; antitumor (anti-leukemic) activity, in words (P388 murine leukemia): did not show antitumor properties; solubility in water, in words [4]: water-soluble
